Data taken from ChEMBL document CHEMBL5380857, “Discovery of Potent, Selective, and Orally Bioavailable Small-Molecule Inhibitors of CDK8 for the Treatment of Cancer” (J Med Chem, 2023).
pEC50, pIC50, pKd: −log10 of the molar value. The source made the active and inactive calls. The rule behind the calls is not given here.

Columns and labels:
CDK8/Cyclin C = CDK8/Cyclin C (Homo sapiens, UniProt P49336); assay: Inhibition of His tagged human recombinant CDK8/Cyclin C expressed in baculovirus expression system incubated for 15 mins by FRET-based LanthaScreen binding competition assay
Chain of CDK8/Cyclin C (P49336 whole entry): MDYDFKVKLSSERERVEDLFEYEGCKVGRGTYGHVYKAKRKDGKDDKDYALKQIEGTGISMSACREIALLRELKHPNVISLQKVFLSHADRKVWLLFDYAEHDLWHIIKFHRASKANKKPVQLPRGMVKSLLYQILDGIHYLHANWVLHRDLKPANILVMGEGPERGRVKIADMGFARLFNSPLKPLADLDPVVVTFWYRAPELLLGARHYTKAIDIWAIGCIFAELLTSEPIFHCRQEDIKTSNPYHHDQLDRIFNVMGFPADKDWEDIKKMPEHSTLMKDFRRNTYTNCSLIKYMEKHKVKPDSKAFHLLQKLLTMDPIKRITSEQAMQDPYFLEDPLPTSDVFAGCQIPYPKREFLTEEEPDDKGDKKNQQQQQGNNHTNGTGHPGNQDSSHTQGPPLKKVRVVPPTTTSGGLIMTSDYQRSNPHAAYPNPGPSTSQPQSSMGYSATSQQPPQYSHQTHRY
Chain of CDK8/Cyclin C (P24863 whole entry, further chain): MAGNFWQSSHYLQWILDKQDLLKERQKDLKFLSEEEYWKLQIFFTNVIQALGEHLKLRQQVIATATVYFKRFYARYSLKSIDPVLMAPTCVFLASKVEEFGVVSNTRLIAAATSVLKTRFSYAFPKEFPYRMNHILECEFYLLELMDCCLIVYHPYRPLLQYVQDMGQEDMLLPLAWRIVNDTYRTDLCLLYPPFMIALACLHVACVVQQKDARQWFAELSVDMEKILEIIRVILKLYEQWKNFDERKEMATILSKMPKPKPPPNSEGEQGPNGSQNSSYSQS

MV4-11 [1] = assay: Antiproliferative activity against human MV4-11 cells assessed as inhibition of cell growth incubated for 10 days and replacement with fresh media with compounds on day 5 by CTG assay; format: functional, cell-based
[2] = Metabolic stability in rat liver microsomes assessed as intrinsic clearance at 1 uM preincubated for 10 mins followed by NADPH addition and measured for 60 mins by LC-MS/MS analysis; format: ADME, Microsome; settings: read-out: CLH
[3] = Metabolic stability in human liver microsomes assessed as intrinsic clearance at 1 uM preincubated for 10 mins followed by NADPH addition and measured for 60 mins by LC-MS/MS analysis; format: ADME, Microsome; settings: read-out: CLH
[4] = Volume of distribution in CD-1 mouse at 5 mg/kg, po or 1 mg/kg, iv administered as single dose and measured for 24 hrs by LC-MS/MS analysis; format: ADME, organism-based; settings: in vivo
[5] = Bioavailability in CD-1 mouse at 5 mg/kg, po or 1 mg/kg, iv administered as single dose and measured for 24 hrs by LC-MS/MS analysis; format: ADME, organism-based; settings: in vivo
[6] = target: Dual specificity protein kinase CLK1 (Homo sapiens, UniProt P49759); assay: Binding affinity to CLK1 (unknown origin) assessed as dissociation constant by competitive binding assay
Chain of Dual specificity protein kinase CLK1 (P49759 whole entry): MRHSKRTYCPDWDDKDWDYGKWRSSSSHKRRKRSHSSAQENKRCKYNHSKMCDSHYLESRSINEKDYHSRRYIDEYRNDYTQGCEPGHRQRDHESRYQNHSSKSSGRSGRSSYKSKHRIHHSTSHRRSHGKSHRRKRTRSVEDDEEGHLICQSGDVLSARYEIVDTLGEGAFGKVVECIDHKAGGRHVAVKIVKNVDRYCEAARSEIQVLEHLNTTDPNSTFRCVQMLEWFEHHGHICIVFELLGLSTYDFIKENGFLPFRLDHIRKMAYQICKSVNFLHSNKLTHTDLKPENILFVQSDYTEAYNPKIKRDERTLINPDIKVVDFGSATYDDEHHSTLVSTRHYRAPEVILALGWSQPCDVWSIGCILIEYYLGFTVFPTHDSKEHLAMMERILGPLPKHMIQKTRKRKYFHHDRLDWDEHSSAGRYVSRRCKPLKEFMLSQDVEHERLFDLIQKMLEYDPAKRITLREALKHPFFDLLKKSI

[7] = target: Dual specificity tyrosine-phosphorylation-regulated kinase 1B (Homo sapiens, UniProt Q9Y463); assay: Binding affinity to DYRK1B (unknown origin) assessed as dissociation constant by competitive binding assay
Chain of Dual specificity tyrosine-phosphorylation-regulated kinase 1B (Q9Y463 whole entry): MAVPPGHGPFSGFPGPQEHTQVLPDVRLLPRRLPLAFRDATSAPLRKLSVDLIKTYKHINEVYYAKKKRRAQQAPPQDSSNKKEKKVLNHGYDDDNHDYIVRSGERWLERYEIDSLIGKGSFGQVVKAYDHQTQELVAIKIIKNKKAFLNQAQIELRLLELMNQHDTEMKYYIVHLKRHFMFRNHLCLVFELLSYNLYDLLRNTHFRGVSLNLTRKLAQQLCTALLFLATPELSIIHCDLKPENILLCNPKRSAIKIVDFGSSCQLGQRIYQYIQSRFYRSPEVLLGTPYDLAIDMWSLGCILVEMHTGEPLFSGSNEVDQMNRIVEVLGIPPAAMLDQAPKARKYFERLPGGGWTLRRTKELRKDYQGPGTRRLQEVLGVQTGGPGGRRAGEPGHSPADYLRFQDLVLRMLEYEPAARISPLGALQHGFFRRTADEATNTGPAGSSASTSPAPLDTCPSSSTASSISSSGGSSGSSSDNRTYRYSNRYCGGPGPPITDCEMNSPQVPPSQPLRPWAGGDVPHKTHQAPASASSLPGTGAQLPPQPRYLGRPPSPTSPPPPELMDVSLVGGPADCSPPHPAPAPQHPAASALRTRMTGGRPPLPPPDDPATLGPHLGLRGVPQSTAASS

[8] = target: T1, Serine/threonine-protein kinase LATS2 (Homo sapiens, UniProt Q9NRM7); assay: Binding affinity to LATS2 (unknown origin) assessed as dissociation constant by competitive binding assay
T1 sequence (Q9NRM7 whole entry): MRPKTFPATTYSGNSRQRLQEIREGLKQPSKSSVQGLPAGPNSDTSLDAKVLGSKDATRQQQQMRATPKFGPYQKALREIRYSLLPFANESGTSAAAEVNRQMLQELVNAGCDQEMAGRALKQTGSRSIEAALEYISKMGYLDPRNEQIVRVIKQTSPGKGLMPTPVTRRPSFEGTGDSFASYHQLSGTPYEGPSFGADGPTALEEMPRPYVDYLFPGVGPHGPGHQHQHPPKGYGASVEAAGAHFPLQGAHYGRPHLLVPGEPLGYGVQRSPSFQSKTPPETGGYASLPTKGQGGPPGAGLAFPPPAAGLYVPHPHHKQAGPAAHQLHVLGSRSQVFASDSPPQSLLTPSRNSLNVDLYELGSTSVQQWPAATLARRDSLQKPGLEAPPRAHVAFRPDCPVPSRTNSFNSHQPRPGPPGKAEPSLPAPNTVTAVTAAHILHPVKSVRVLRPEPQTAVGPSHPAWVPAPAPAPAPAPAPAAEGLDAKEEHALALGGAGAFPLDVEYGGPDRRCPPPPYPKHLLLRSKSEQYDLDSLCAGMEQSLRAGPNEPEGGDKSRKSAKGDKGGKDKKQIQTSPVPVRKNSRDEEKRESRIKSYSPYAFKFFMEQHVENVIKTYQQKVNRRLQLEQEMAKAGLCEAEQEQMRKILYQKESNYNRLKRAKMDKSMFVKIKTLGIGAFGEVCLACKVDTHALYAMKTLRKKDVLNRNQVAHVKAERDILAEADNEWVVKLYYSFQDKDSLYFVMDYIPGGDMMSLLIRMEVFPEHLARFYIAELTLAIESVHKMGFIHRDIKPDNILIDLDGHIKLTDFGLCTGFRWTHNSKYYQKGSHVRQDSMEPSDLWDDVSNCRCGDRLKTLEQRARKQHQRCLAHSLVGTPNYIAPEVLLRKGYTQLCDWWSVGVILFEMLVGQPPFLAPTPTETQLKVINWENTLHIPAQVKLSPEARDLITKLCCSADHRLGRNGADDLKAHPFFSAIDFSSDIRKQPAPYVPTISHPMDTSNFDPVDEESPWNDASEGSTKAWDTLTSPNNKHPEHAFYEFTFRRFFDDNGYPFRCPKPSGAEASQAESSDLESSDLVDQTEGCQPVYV

[9] = target: Cyclin-dependent kinase 19 (Homo sapiens, UniProt Q9BWU1); assay: Inhibition of CDK19 (unknown origin)
MV4-11 [10] = assay: Induction of cell cycle arrest in human MV4-11 cells assessed as accumulation of cells at G0/G1 phase at 0.01 to 1 uM incubated for 48 hrs; format: functional, cell-based; settings: dose 0.01-1 µM
MV4-11 [11] = assay: Induction of cell cycle arrest in human MV4-11 cells assessed as reduction in accumulation of cells at G2/M phase at 0.01 to 1 uM incubated for 48 hrs; format: functional, cell-based; settings: dose 0.01-1 µM
[12] = Half life in CD-1 mouse at 5 mg/kg, po or 1 mg/kg, iv administered as single dose and measured for 24 hrs by LC-MS/MS analysis; format: ADME, organism-based; settings: in vivo
[13] = Volume of distribution in Sprague-Dawley rat at 5 mg/kg, po or 1 mg/kg, iv administered as single dose and measured for 24 hrs by LC-MS/MS analysis; format: ADME, organism-based; settings: in vivo
[14] = Volume of distribution in Beagle dog at 1 mg/kg, po or 0.5 mg/kg, iv administered as single dose and measured for 24 hrs by LC-MS/MS analysis; format: ADME, organism-based, Canis lupus familiaris; settings: in vivo
[15] = Half life in Beagle dog at 1 mg/kg, po or 0.5 mg/kg, iv administered as single dose and measured for 24 hrs by LC-MS/MS analysis; format: ADME, organism-based, Canis lupus familiaris; settings: in vivo
[16] = Cytotoxicity against HEK293 cells; format: toxicity, cell-based; settings: human
Cytochrome P450 3A4 = Cytochrome P450 3A4 (Homo sapiens, UniProt P08684); assay: Inhibition of CYP3A4 in human liver microsomes using midazolam as substrate assessed as reduction in substrate hydroxylation incubated for 10 mins in presence of NADPH by LC-MS/MS analysis; format: ADME, Microsome
Chain of Cytochrome P450 3A4 (P08684 whole entry): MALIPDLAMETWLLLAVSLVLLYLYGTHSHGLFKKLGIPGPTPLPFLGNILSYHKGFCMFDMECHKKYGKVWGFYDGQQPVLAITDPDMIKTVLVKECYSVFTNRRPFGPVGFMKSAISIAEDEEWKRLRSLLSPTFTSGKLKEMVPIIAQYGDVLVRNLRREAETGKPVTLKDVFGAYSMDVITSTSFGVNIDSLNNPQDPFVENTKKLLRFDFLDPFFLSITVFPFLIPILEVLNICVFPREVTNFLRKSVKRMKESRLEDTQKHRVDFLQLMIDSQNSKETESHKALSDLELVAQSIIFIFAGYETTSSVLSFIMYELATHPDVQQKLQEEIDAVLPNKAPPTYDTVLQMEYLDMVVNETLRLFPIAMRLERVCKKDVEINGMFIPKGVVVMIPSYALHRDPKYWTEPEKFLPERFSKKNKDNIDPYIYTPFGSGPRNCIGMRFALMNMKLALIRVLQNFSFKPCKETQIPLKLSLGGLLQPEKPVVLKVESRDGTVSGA

Cytochrome P450 2C9 = Cytochrome P450 2C9 (Homo sapiens, UniProt P11712); assay: Inhibition of CYP2C9 in human liver microsomes using diclofenac as substrate assessed as reduction in substrate hydroxylation incubated for 10 mins in presence of NADPH by LC-MS/MS analysis; format: ADME, Microsome
Chain of Cytochrome P450 2C9 (P11712 whole entry): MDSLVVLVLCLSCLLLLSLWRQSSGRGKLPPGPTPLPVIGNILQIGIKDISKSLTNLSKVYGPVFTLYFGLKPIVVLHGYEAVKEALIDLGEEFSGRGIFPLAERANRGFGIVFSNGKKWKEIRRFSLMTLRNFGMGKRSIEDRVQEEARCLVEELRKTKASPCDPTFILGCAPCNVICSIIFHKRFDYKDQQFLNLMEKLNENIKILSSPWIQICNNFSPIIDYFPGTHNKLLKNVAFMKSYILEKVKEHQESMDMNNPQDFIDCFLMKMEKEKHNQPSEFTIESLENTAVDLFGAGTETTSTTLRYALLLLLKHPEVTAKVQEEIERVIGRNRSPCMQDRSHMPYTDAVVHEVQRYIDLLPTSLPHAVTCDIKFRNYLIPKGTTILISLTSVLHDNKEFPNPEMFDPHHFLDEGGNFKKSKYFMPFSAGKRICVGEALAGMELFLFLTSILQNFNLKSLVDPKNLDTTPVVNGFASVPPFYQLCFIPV

Cytochrome P450 2D6 = Cytochrome P450 2D6 (Homo sapiens, UniProt P10635); assay: Inhibition of CYP2D6 in human liver microsomes using dextromethorphan as substrate assessed as reduction in substrate demethylation incubated for 10 mins in presence of NADPH by LC-MS/MS analysis; format: ADME, Microsome
Chain of Cytochrome P450 2D6 (P10635 whole entry): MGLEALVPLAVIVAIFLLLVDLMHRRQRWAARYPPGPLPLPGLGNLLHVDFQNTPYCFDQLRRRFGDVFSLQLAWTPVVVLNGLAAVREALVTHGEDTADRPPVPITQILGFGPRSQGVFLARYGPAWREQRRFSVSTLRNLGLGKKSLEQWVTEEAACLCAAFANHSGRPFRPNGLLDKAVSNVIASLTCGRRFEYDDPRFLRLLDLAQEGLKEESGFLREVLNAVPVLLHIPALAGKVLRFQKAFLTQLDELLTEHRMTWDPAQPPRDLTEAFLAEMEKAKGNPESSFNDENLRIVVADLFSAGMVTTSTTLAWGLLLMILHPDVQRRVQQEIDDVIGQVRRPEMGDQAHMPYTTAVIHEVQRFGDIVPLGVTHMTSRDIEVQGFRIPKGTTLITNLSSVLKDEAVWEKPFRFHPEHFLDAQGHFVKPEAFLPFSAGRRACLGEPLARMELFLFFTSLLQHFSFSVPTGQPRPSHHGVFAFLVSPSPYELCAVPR

[17] = target: Voltage-gated inwardly rectifying potassium channel KCNH2 (Homo sapiens, UniProt Q12809); assay: Inhibition of hERG expressed in CHO cells at -80 mV holding potential by whole cell patch clamp recording assay; format: toxicity, cell-based
Chain of Voltage-gated inwardly rectifying potassium channel KCNH2 (Q12809 whole entry): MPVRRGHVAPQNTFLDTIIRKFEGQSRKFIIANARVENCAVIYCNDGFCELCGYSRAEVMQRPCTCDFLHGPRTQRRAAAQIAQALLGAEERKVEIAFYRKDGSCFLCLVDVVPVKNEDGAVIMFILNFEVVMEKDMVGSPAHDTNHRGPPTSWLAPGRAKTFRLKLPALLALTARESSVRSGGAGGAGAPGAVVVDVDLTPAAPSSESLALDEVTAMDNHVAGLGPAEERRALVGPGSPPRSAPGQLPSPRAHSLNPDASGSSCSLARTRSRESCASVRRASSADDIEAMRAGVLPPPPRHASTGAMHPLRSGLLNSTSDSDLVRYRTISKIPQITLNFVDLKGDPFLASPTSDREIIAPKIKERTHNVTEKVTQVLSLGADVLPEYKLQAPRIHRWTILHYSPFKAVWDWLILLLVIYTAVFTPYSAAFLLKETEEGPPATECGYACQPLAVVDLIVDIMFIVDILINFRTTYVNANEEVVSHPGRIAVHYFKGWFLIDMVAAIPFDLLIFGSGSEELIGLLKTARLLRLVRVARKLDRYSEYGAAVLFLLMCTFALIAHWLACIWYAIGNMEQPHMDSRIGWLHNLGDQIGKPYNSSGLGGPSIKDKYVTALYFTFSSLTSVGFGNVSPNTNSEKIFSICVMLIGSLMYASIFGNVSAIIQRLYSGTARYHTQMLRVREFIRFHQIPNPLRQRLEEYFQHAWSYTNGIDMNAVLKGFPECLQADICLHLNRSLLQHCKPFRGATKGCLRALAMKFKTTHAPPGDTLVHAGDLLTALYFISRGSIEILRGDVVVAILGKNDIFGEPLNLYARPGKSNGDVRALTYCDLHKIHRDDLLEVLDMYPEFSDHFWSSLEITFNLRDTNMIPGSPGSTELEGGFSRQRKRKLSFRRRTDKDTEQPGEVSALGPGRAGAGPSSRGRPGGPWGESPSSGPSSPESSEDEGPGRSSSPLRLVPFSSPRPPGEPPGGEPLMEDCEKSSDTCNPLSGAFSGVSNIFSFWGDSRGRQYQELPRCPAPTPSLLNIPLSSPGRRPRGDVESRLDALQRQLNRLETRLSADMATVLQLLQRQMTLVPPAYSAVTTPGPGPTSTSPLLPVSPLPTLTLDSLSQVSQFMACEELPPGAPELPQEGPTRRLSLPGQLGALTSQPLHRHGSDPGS

MC-38 = assay: Antitumor activity against mouse MC-38 cells implanted in C57BL/6J syngeneic mouse model assessed as tumor growth inhibition at 3 mg/kg, po administered via gavage once daily for 21 days in presence of mPDL1 antibody administered twice per week and measured 3 times a week by caliper method relative to control; format: functional; settings: MC-38, 504 h, time 21 day, read-out: TGI
[18] = target: Glycogen synthase kinase-3 beta (Homo sapiens, UniProt P49841)
Chain of Glycogen synthase kinase-3 beta (P49841 whole entry): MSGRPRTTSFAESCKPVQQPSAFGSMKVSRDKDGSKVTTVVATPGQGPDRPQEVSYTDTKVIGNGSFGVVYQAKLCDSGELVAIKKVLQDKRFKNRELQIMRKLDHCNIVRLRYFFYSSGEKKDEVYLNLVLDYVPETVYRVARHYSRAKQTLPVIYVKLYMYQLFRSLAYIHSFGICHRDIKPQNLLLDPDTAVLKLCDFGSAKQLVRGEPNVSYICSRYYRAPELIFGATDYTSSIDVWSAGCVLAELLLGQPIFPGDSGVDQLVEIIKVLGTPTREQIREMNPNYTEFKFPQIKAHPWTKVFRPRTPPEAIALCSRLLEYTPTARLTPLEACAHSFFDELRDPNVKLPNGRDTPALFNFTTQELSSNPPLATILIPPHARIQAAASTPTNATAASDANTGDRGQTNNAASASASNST
Description: Binding affinity to GSK3B (unknown origin) assessed as dissociation constant by competitive binding assay

## Cc1n[nH]c2ccc(-c3nnc(C)n3Cc3ccc(C(F)(F)F)cc3)cc12
CDK8/Cyclin C
  pIC50: 9.15
MV4-11 [1]
  pIC50: 7.93
[2]
  CLint scaled at 1 µM: 29.9 mL/min/kg
[3]
  CLint scaled at 1 µM: < 8.6 mL/min/kg
[4]
  Vd: 0.4 L/kg
[5]
  bioavailability: 87.4%
[6]
  pKd: 7.05
[7]
  pKd: 5.57
[8]
  pKd: 6.60
[9]
  pIC50: 8.70
MV4-11 [10]
  Activity: Active
MV4-11 [11]
  Activity: Active
[12]
  half-life: 228 min
[13]
  Vd: 1.2 L/kg
[14]
  Vd: 0.5 L/kg
[15]
  half-life: 276 min
[16]
  pEC50: < 5.00
Cytochrome P450 3A4
  pIC50: < 4.30
Cytochrome P450 2C9
  pIC50: 4.94
Cytochrome P450 2D6
  pIC50: 4.35
[17]
  pIC50: < 4.52
MC-38
  inhibition in vivo at 3 mg/kg: 80.4%
[18]
  pKd: 6.68
